Experimental data published in PMC5175178, “Development of an in-vivo active reversible butyrylcholinesterase inhibitor” (Scientific Reports, 2016).
Read-outs that look alike come from different tables or passages of the source.

Legend:
mice [1] = assay: Rotarod test, motor coordination; conditions: for Time spent on the rotarod (s ±SEM) 6 rpm / Time spent on the rotarod (s ±SEM) 18 rpm / Time spent on the rotarod (s ±SEM) 24 rpm: 60 min
Procedure: The mice had free access to food and water, and the ambient temperature and humidity of the room were kept constant throughout all of the tests. For the behavioral tasks, the mice were selected at random, and each group consisted of 8 to 10 mice dose^−1. The experiments were performed between 08:00 and 14:00. Immediately after these in-vivo assays, the animals were euthanized by cervical dislocation. […] All efforts were made to minimize the number of mice used and their suffering.
Before the test, the mice were trained for three consecutive days on the rotarod apparatus (Rotarod apparatus, May Commat RR0711, Turkey; rod diameter, 2 cm) that was rotating at a fixed speed of 18 rotations per minute (rpm). In each training session, the mice were put on the rotating rod for 3 min, with an unlimited number of trials. The correct experimentation was performed 24 h after the last training session. […] Motor impairments were defined as the inability to remain on the rotarod apparatus for 1 min, and were expressed as the mean time spent on the rotarod^36.

SH-SY5Y cells = assay: Cytotoxicity in SH-SY5Y cells, MTS cell viability assay; conditions: 48 h
Procedure: Prior to cell treatments, complete medium was replaced with reduced-serum medium (i.e., with 2% fetal bovine serum).
After 24 h (a) or 48 h (b), the cell viability was evaluated using the MTS assay. The control group (DMSO) was considered as 100% cell viability. Data are means ±SD of at least three independent experiments, each carried out in triplicate (a) and quadruplicate (b).
The cells were treated as described above, and cell viability was assessed after 48 h using the CellTiter 96 Aqueous One Solution Cell Proliferation Assay (Promega, Madison, WI, USA), according to the manufacturer instructions. […] The data are presented as percentages of the control (DMSO).

Aβ1–42 aggregation [2] = target: T1, Aβ1–42 aggregation (Homo sapiens, UniProt P05067); assay: Aβ1–42 aggregation inhibition, thioflavin-T fluorometric assay; type: biochemical
T1 construct: Recombinant human HFIP-pretreated Aβ1–42 peptide (Merck Millipore, Darmstadt, Germany); purchased Merck Millipore, Darmstadt, Germany
Procedure: Recombinant human HFIP-pretreated Aβ1–42 peptide (Merck Millipore, Darmstadt, Germany) was dissolved in DMSO to give 75 μM stock solution. […]. The ThT emission of the Aβ1–42 began to rise after 4 h, reached a plateau after 20 h, and remained almost unchanged for an additional 28 h of incubation. The fluorescence intensities at the plateau in the absence and presence of the test compound were averaged, and the average fluorescence of the corresponding wells at t= 0 h was subtracted. […]

[3] = tested on: scopolamine-induced memory impairment in mice; assay: Passive avoidance task, scopolamine-induced memory impairment; type: in vivo, Albino Swiss (CD–1 Krf) mice
Procedure: The first behavioral test performed was the passive avoidance (PA) task, which allows the evaluation of the effects of a drug on fear-motivated contextual memory. […] In the passive avoidance task, better memory performance is determined according to a longer step-through latency in the retention trial (i.e., the testing phase) than in the acquisition trial (i.e., the conditioning phase). […] The mice had free access to food and water, and the ambient temperature and humidity of the room were kept constant throughout all of the tests. For the behavioral tasks, the mice were selected at random, and each group consisted of 8 to 10 mice dose^−1. The experiments were performed between 08:00 and 14:00. Immediately after these in-vivo assays, the animals were euthanized by cervical dislocation. […] All efforts were made to minimize the number of mice used and their suffering.
The effect of the test compounds on acquisition and retention in the passive avoidance task was conducted accordingly to a previously described method^30. For this purpose, the passive avoidance apparatus was used (Panlab Harvard Apparatus, Spain).
The testing phase was conducted 24 h after the acquisition phase. For the acquisition, each mouse was initially placed for 30 s in the light compartment (exploration period; guillotine gate closed). At the end of the exploration period the guillotine door between the light and the dark compartments was opened and the time elapsed before entering the black chamber was recorded. As soon as the mouse entered the dark compartment, the door automatically closed and an electrical shock (current intensity: 0.2 mA, duration: 2 s) was delivered through the grid floor.
For the retention trial (drug off), the mice were placed in the illuminated white compartment again, and the latency time between door opening and entry into the dark compartment was recorded for each mouse. […] Better memory performance was indicated by longer latency before entry into the black chamber in the test (retention) phase than in the conditioning (acquisition) phase.

[4] = tested on: cryopreserved human hepatocytes; assay: Metabolite identification in cryopreserved human hepatocytes, LC-HRMS; conditions: 2 h with human cryopreserved hepatocytes
Procedure: The plasma metabolic stability and hepatic clearance were estimated by the substrate depletion method. Qualitative aspect of metabolic degradation was performed by metabolite identification using LC-high resolution mass spectrometry (HRMS). […] Principal Phase I (oxidative) and Phase II (conjugative) metabolites have been detected and characterized following previously described preocedure^27. […] Samples were taken at time 0 and the end of the incubation (2 h), respectively. A control sample (no test compound added) was also prepared and incubated for the same period of time. After the reaction was stopped by addition of acetonitrile, the supernatants were subjected to HPLC-MS analysis. Separation of analytes was achieved using Acquity HSS T3 column (100 × 2.1 mm, 1.8 µ, Waters). The sample solutions-supernatants (5 µL) were injected and eluted at a flow rate of 0.5 mL min^–1, using a linear gradient of mobile phase A (0.1% formic acid in water) and mobile phase B (0.1% formic acid in MeCN). […] Retention times and the respective MS and MS/MS spectra of the species detected in the incubated sample and not in time-zero or blank sample were identified and recorded.

Aβ1–42 aggregation [5] = target: T1, Aβ1–42 aggregation; assay: Aβ1–42 aggregation inhibition, dot-blot assay; type: biochemical; conditions: 10 μM compound
Procedure: Recombinant human HFIP-pretreated Aβ1–42 peptide (Merck Millipore, Darmstadt, Germany) was dissolved in DMSO to give 100 μM stock solution. Prior to the incubations, the Aβ1–42 peptide stock solution was diluted in HEPES buffered solution (150 mM HEPES, pH 7.4, 150 mM NaCl) to give 10 μM Aβ1–42. […]; 10 μM final concentration), and added to the black-walled 96-well plates in quadruplicate, and diluted with HEPES buffered solution to a final volume of 100 μL. To determine the blank value (b), 1% DMSO in HEPES buffered solution replaced the Aβ1–42 peptide solution. The sealed 96-well plate was placed in an incubator at 37 °C with continuous shaking, for 24 h. Then 10 μL from each well were spotted on nitrocellulose membrane. The membrane was dried and blocked with 5% non-fat milk in TBST (50 mM Tris, pH 7.4, 150 mM NaCl, 0.1% Tween 20) at room temperature for 30 min, washed with TBST, and probed with the LOC anti-amyloid fibrils antibody (Millipore, 1:10,000, in 2% non-fat milk-TBST) or the OC anti-amyloid fibrils antibody (Millipore, 1:10,000, in 2% non-fat milk-TBST), for 1 h. […] The blots were developed with Pierce ECL Western Blotting Substrate (Thermo Scientific) for 2 min, detected with a Bio-Rad ChemiDoc MP Imaging System, and further analyzed with Image Lab software (Bio-Rad). Inhibition of the Aβ1–42 aggregation was quantified using equation: […]

in vitro [6] = type: in vitro ADME; set-up: protein bound: dose or concentration left out as unconfirmed; conditions: for recovery at 4 h, 10 µM: human, pH 7.4, human plasma protein binding assay
Procedure: The experiment was accepted in accordance with Eurofins validation Standard Operating Procedure.
The equilibrium dialysis technique was used to separate the fraction of the bound to human plasma protein. The assay was performed in a 96-well format in a dialysis block constructed from Teflon to minimize the unspecific binding^25. Plasma from human was used as the default protein containing matrix. […] The dialysate compartment was loaded with the phosphate buffered saline (PBS, pH 7.4), and the sample side was loaded with equal volume of the spiked protein matrix. The dialysis plate was then sealed and incubated at 37 °C for 4 h. A control sample (n = 2) was prepared from the spiked protein matrix in the same manner as the assay sample (without dialysis). The control sample served as the basis for the recovery determination. After the incubation, samples were taken from each compartment, diluted with phosphate buffer followed by addition of acetonitrile and centrifugation. The supernatants were then used for HPLC-MS/MS analysis using selected reaction monitoring. The HPLC conditions consisted of a binary LC pump with autosampler, a C18 column (2 × 20 mm), and gradient elution.
Protein binding (%) = (Areap-Areab) / Areap ×100 (3),
Recovery (%) = (Areap-Areab) / Areac ×100 (4),
The recovery determination serves as an indicator of reliability of the calculated protein binding value. Low recovery would indicate that the test compound is lost during the course of the assay, most likely due to non-specific binding or degradation.

mice [7] = assay: Locomotor activity test; conditions: 30 mg kg^–1 IP, 1 h before the assay
Description: Eight-week-old male Albino Swiss (CD–1 Krf) mice weighing from 18 g to 22 g were used in the passive avoidance task, and the locomotor activity and rotarod tests, and C57BL/6 J mice of the same age were used in the MWM and the RAWM tasks. […] The mice had free access to food and water, and the ambient temperature and humidity of the room were kept constant throughout all of the tests. For the behavioral tasks, the mice were selected at random, and each group consisted of 8 to 10 mice dose^−1. The experiments were performed between 08:00 and 14:00. Immediately after these in-vivo assays, the animals were euthanized by cervical dislocation. […] All efforts were made to minimize the number of mice used and their suffering.
Data are means ±SEM. The vehicle and the test compound were administered intraperitoneally, 1 h before the assay. Statistical analysis of the data was performed using repeated measures analysis of variance (ANOVA), followed by Bonferroni multiple comparisons.
The mouse locomotor activity (i.e., number of light-beam crossings) was measured during the next 30 min of the test^36.

in vitro [8] = conditions: both, human, hepatocytes, pH 7.3
Procedure: (§1) The plasma metabolic stability and hepatic clearance were estimated by the substrate depletion method.
(§2) Cryopreserved hepatocytes (mixed gender and pool of 10 or more) were thawed, washed, and resuspended in Krebs-Heinslet buffer (pH 7.3). […] The reaction was stopped by adding acetonitrile into the incubation mixture. Samples were then mixed, transferred completely to another 96-well plate, and centrifuged. Supernatants were used for HPLC-MS/MS analysis. As reference substances, four compounds were tested in each assay. […] In the HPLC-MS/MS analysis peak areas corresponding to the test compounds were recorded. Metabolic stability, expressed as percentage of the parent compound remaining, was calculated by comparing the peak area of the compound at the time point relative to that at time 0. The half-life (t1/2) was estimated from the slope of the initial linear range of the logarithmic curve of the compound remaining (%) versus time, assuming first order kinetics. The apparent intrinsic clearance (Clint in µL/min/million cells) was calculated from the half-life according to the following formula:

[9] = Caco-2 monolayer bidirectional permeability assay; conditions: human, Caco-2, Papp(A–B), apical-to-basolateral, 100 µM donor
Procedure: They were grown on Transwell® culture inserts with a polycarbonate membrane (diameter, 12 mm; pore size, 0.4 µm). 50,000 cells/filter membranes were used for seeding and the medium was changed every two days. At day 18, transepithelial electrical resistance (TEER) was measured for each filter with Caco-2 cell monolayers. […] The samples were acidified by dilution with the same volume of 0.01M HCl before fluorescence measurements.
Ringer buffer with 10 mM d-glucose or 10 mM mannitol on apical and basolateral side of the tissue, respectively, was used as an incubation saline. […] The stock solutions were added either to the apical or to the basolateral compartment to obtain bidirectional permeability measurements. Six samples were withdrawn in 20 min intervals. Each time 300 µl was taken from the 1500 µL basolateral acceptor compartment and 100 µL from the 500 µL apical acceptor compartment. These volumes were immediately replaced by the appropriate fresh incubation saline. […] All apparent permeability coefficients were calculated as described previously^24.

in vitro [10] = conditions: human, plasma
Procedure: as §1
(§3) The incubation was performed in a 37 °C water bath for 2 h. An aliquot of the incubation mixture was transferred to acetonitrile at 0, 0.5, 1, 1.5 and 2 h, respectively. Samples were then mixed and centrifuged. Supernatants were used for HPLC-MS/MS analysis using selected reaction monitoring, and peak areas were recorded for each analyte. The HPLC conditions consisted of a binary LC pump with autosampler, a C18 column (2 × 20 mm), and gradient elution. The area of precursor compound remaining after each time points relative to the amount remaining at time zero, expressed as percent, is calculated. Subsequently, the half-life (t1/2) was estimated from the slope of the initial linear range of the logarithmic curve of the compound remaining (%) versus time, assuming first order kinetics.

[11] = tested on: cryopreserved human hepatocytes; assay: Metabolic stability in cryopreserved human hepatocytes; conditions: 1 µM
Procedure: as §1, §2

mAChE = target: T2, mAChE (Mus musculus, UniProt P21836); assay: In-vitro inhibitory activity against mAChE, method of Ellman; type: biochemical, murine
T2 construct: donated by Florian Nachon (IBS, Grenoble)
T2 sequence (P21836 32-614): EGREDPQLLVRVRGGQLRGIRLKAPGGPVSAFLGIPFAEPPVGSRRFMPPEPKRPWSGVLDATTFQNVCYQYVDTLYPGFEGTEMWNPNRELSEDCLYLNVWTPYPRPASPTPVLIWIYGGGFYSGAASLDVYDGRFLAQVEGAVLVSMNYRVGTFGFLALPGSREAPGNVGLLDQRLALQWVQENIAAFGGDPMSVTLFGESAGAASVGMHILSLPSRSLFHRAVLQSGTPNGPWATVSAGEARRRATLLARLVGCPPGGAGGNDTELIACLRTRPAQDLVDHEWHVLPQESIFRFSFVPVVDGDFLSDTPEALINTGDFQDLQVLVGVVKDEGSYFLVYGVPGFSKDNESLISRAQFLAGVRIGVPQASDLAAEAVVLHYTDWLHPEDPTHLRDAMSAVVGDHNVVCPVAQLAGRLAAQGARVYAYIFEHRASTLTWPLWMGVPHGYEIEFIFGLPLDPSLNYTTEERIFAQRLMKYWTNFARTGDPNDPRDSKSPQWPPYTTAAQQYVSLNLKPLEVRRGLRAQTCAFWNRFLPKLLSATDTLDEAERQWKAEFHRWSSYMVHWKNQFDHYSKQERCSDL
Procedure: The inhibitory potencies of the compounds against the ChEs were determined using the method of Ellman[32].
The enzyme solutions were prepared by dilution of the concentrated stocks in phosphate-buffered solution (0.1 M, pH 8.0). […] The reactions were started by addition of the substrate, at room temperature. The final content of the organic solvent (DMSO) was always 1%. […] To determine the blank value (b), phosphate-buffered solution replaced the enzyme solution. The initial velocity (v0) was calculated from the slope of the linear trend obtained, with each measurement carried out in triplicate. […] The compounds were added to each well at a final concentration of 10 μM. […] The initial velocities in the presence of the test compounds (vi) were calculated. The inhibitory potencies are expressed as the residual activities (RA = (vi – b) / (vo – b)). […] The IC50 values were obtained by plotting the residual enzyme activities against the applied inhibitor concentrations, with the experimental data fitted to Equation (1):
where X is the logarithm of the inhibitor concentration, and Y is the residual activity. For the fitting procedure, the Gnuplot software and an in-house python script were used.

[12] = human plasma, 10 µM, 37 °C, 4 h

T1 sequence (P05067 672-713): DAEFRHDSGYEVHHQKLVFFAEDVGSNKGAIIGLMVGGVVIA
Procedure for Human plasma stability: as §1, §3

## COCCN(CC1CCCN(Cc2ccccc2)C1)S(=O)(=O)c1ccc2ccccc2c1 (racemic) [compound 2, (±)-N-((1-benzylpiperidin-3-yl)methyl)-N-(2-methoxyethyl)naphthalene-2-sulfonamide]
Mice [1]; 30 mg kg^-1 IP
  Time spent on the rotarod (s ±SEM) 6 rpm: 60.0 s
  Time spent on the rotarod (s ±SEM) 18 rpm: 60.0 s
  Time spent on the rotarod (s ±SEM) 24 rpm: 60 s
Mice [1]; 100 mg kg^-1 IP
  Time spent on the rotarod (s ±SEM) 6 rpm: 60.0 s
  Time spent on the rotarod (s ±SEM) 18 rpm: 53.3 ± 6.8 s
  Time spent on the rotarod (s ±SEM) 24 rpm: 52.3 ± 6.8 s
Mice [1]; even at 100 mg kg^−1
  impact on motor coordination: did not induce motor deficits
SH-SY5Y cells
  LD50 SH-SY5Y cells: 31.40 µM
Aβ1–42 aggregation [2]; 10 μM
  Aβ(1–42) aggregation inhibition: did not inhibit Aβ(1–42) aggregation
Aβ1–42 aggregation [2]; 10 μM compound, 1.5 μM Aβ1–42, read-out: Percent inhibition ±SEM (%) ThT
  inhibition at 10 µM: -4.89%
Human plasma stability; discussion
  half-life in human plasma: > 2 h
Human plasma stability; human plasma, 1 µM, 37 °C
  Half-Life t1/2 (min) 1st: 223.1 min
  Half-Life t1/2 (min) 2nd: 206.7 min
  Half-Life t1/2 (min) Mean: >120 min
[3]; 10 mg kg^−1 IP before scopolamine 1 mg kg^−1
  step-through latency, retention trial: 70 s
[3]; 20 mg kg^−1 IP before scopolamine 1 mg kg^−1
  step-through latency, retention trial: 58 s
[3]; 30 mg kg^−1 IP before scopolamine 1 mg kg^−1
  step-through latency, retention trial: 102 s
[4]
  possible metabolites identified with LC-HRMS: N-debenzylated, demethylated, and a demethylated + glucoronide products
Aβ1–42 aggregation [5]; read-out: Percent inhibition ±SEM (%) Dot blot (LOC antibody)
  inhibition at 10 µM: 12.7 ± 8.9%
Aβ1–42 aggregation [5]; read-out: Percent inhibition ±SEM (%) Dot blot (OC antibody)
  inhibition at 10 µM: 2.7 ± 9.32%
In vitro [6]; human blood plasma, equilibrium dialysis
  protein bound: 96%
In vitro [6]; [12]
  Protein Bound (%) 1st: 96.0%
  Protein Bound (%) 2nd: 95.3%
  Protein Bound (%) Mean: 96%
In vitro [6]; read-out: Recovery (%) 1st
  recovery at 4 h, 10 µM: 101%
In vitro [6]; read-out: Recovery (%) 2nd
  recovery at 4 h, 10 µM: 99%
In vitro [6]; read-out: Recovery (%) Mean
  recovery at 4 h, 10 µM: 100%
Mice [7]
  locomotor activity of mice: transient reduction in the locomotor activity
In vitro [8]
  half-life at 1 µM: 0.928 h
[9]
  Papp A→B at 120 min, 100 µM: 30 ± 10.7 ×10⁻⁶ cm/s
In vitro [10]
  half-life at 1 µM: > 2 h
[11]
  Half-Life t1/2 (min) 2nd: 51.7 min
  Half-Life t1/2 (min) Mean: 54 min
[11]; third replicate column
  Half-Life t1/2 (min) 2rd: 55.6 min
mAChE; residual activity at 10 μM, %RA > 75% was considered as no inhibition, Table 1
  %RA at 10 µM ±SEM mAChE: 97% ± 2%
mAChE; residual activity at 10 µM, %RA >75% was considered no inhibition, Supplementary Table 1
  %RA at 10 µM ±SEM mAChE: 97% ±2%
